According to patent publication US4847302A, “Use of certain compounds in livestock food as growth promotants for better feed utilization and improved carcass composition” (Merck & Co., Inc., priority 1988, dated 1989):
Where two headings read alike, the source gives them in different places.

Legend:
[1] = test system: Isolated Chicken Hepatocytes; assay: Inhibition of lipogenesis (14C acetate incorporation) in isolated chicken hepatocytes; format: cell-based; settings: for percent change compared to control, 14C acetate incorporation in fatty acids: 120 min; for inhibition at 0.01 µM / inhibition at 0.05 µM / inhibition at 0.25 µM: Gallus gallus, Hepatocyte, 2 h, read-out: percent change compared to control, 14C acetate incorporation in fatty acids
Method: Determination of anti-lipogenic activity in hepatocytes
Hepatocytes were isolated from chicken liver using the procedure for adipocytes and incubated for 2 hours at 37° C. in the presence of ^14 C acetate and test compounds. […] Isoproterenol, at the same concentrations, was used as a positive control. After incubation, 8 ml Doles reagent (isopropanol:hexane:H2 SO4, 40:10:1) was added and incubation vials were shaken at room temperature for 30 minutes. Vial contents were poured into 50 ml screw-cap tubes. Vials were then rinsed with 6 ml hexane which was poured into the appropriate 50 ml tube. Tubes were shaken by hand, 10 ml H2 O was added, and tubes were shaken again. After phase separation, 2 ml of the upper (hexane) phase was removed to scintillation vials. Hexane was evaporated by a gentle air flow and the remaining lipids were resuspended in 10 ml Scinti Verse II. ^14 C was counted in a Packard liquid scintillation counter. Data are reported as CPM of ^14 C acetate incorporated into total lipids.

[2] = test system: Isolated Swine Adipocytes; assay: Stimulation of lipolysis (glycerol production) in isolated swine adipocytes; format: cell-based; settings: for activation at 0.01 µM / activation at 0.05 µM / activation at 0.25 µM: Sus scrofa, Adipocyte, 2 h, read-out: percent increase compared to control, glycerol production
Method: (§1) Fat was collected from freshly killed animals as follows: epididymal and perirenal fat from 150 to 200 g male rates; perirenal fat from 20 to 25 kg whether lambs, and perirenal and omental fat from 35 to 50 kg gilts. Immediately after collection, fat was placed in a siliconized beaker (all glassware was siliconized) containing Krebs-Ringer bicarbonate solution (KRB; pH 7.4) at 37° C. Fat was transferred to a clean beaker and finely chopped with scissors. Chopped fat was then used as such (whole adipose preparation) or treated with collagenase (isolated adipocytes).
(§2) Chopped fat was placed in a shaker containing 70 ml cell dispersion medium (CDM; 5 mM glucose, 0.1% collagenase, 4% bovine serum albumin (BSA), in KRB) and incubated at 37° C. for 1 hour with gentle shaking. Fat was then filtered to remove clumps and washed 4 times with washing medium (WM; 2.5 mM glucose, 1% BSA, in KRB) and 1 time with final suspension medium (FSM; 2.5 mM glucose, 2% essentially fatty acid free BSA, in KRB). Isolated adipocytes were then resuspended in the required amount of FSM (1 ml/flask, 3 flasks/treatment).
(§3) Whole adipose tissue from the rat (0.3 ml) or isolated adipocytes from sheep or swine (1 ml) were placed in plastic scintillation vials containing FSM (1.7 or 1 ml, respectively) and test compounds, and incubated at 37° C. for 2 hours. […] Isoproterenol, at the same concentrations, was used as a positive control. After incubation, media was removed and assayed for glycerol by a fluorometric modification of the method of Wieland (1974. Glycerol UV-method. pp. 1404. In: Bergmeyer (Ed.) Methods of Enzymatic Analysis. Verlag Chemie Weinham, Academic Press, New York).

[3] = test system: Isolated Ovine Adipocytes; assay: Stimulation of lipolysis (glycerol production) in isolated ovine adipocytes; format: cell-based, sheep; settings: for activation at 0.01 µM / activation at 0.25 µM / activation at 0.05 µM: Ovis aries, Adipocyte, 2 h, read-out: percent increase compared to control, glycerol production
Method: as §1, §2, §3

[4] = test system: Rat Adipose Tissue; assay: Stimulation of lipolysis (glycerol production) in chopped rat adipose tissue; format: cell-based; settings: for activation at 0.01 µM / activation at 0.05 µM / activation at 0.25 µM: Rattus norvegicus, 2 h, read-out: percent increase compared to control, glycerol production
Method: as §1
as §3, with “York). […]” for “York).”

[5] = In vivo testing in rats: growth, feed conversion and carcass composition; design: species or system rat (male Charles River CD); settings: in diet, dose equivalent to 20 ppm clenbuterol (clenbuterol: 10)
Source text: Eighty intact, male Charles River CD rats, 75-90 g, were housed and maintained on rat chow and water ad libitum. After four days acclimation ten rats per group were randomized by weight to treatment and pen. Compounds to be tested were premixed and added to ground rat chow using doses equivalent to 20 ppm of clenbuterol on a molecular weight basis. It had previously been determined 10 ppm of clenbuterol was the minimum dose needed to give maximum improvements in gain and feed conversion. Therefore, the results of any compound tested should cause responses similar to clenbuterol if the compound has half or more the activity of clenbuterol.

[6] = Growth promoting activity / feed utilization in livestock (general statements); format: in vivo

CC(C)N[C@H]1CCc2c(ccc(O)c2CO)[C@@H]1O.Cl [VIII]
percent change compared to control, 14C acetate incorporation in fatty acids ([1]; Test 2, 0.01 μM): 26% | percent change compared to control, 14C acetate incorporation in fatty acids ([1]; Test 2, 0.05 μM): -9% | percent change compared to control, 14C acetate incorporation in fatty acids ([1]; Test 2, 0.25 μM): -34% | percent increase compared to control, glycerol production ([2]; Test 1, 0.01 μM): 13% | percent increase compared to control, glycerol production ([2]; Test 1, 0.05 μM): 147% | percent increase compared to control, glycerol production ([2]; Test 1, 0.25 μM): 180% | percent increase compared to control, glycerol production ([2]; Test 2, 0.01 μM): 61% | percent increase compared to control, glycerol production ([2]; Test 2, 0.05 μM): 59% | percent increase compared to control, glycerol production ([2]; Test 2, 0.25 μM): 460% | percent increase compared to control, glycerol production ([3]; Test 1, 0.01 μM): 135% | percent increase compared to control, glycerol production ([3]; Test 1, 0.05 μM): 445% | percent increase compared to control, glycerol production ([3]; Test 1, 0.25 μM): 565% | percent increase compared to control, glycerol production ([3]; Test 2, 0.01 μM): 71% | percent increase compared to control, glycerol production ([3]; Test 2, 0.05 μM): 1143% | percent increase compared to control, glycerol production ([3]; Test 2, 0.25 μM): 1800% | percent increase compared to control, glycerol production ([4]; Test 1, 0.01 μM): 19% | percent increase compared to control, glycerol production ([4]; Test 1, 0.05 μM): 26% | percent increase compared to control, glycerol production ([4]; Test 1, 0.25 μM): 21% | percent increase compared to control, glycerol production ([4]; Test 2, 0.01 μM): -7% | percent increase compared to control, glycerol production ([4]; Test 2, 0.05 μM): 4% | percent increase compared to control, glycerol production ([4]; Test 2, 0.25 μM): 7% | Feed Conversion ([5]; Test 1, control 2.55): 2.41 | Gain ([5]; Test 1, control 7.3): 8.1 g/day | Feed Intake ([5]; Test 1, control 18.6): 19.5 g/day | Weight ([5]; Test 1, control 191.8): 202.6 g | Carcass Composition % of Change over Control, Fat ([5]; Test 1): -6.1% | Carcass Composition % of Change over Control, Protein ([5]; Test 1): 6.4%

CC(C)NCC(O)c1ccc(O)c(O)c1 (stereo not drawn) [Isoproterenol]
inhibition at 0.01 µM ([1]; Test 1, 0.01 μM): 29.1% | inhibition at 0.05 µM ([1]; Test 1, 0.05 μM): 48.6% | inhibition at 0.25 µM ([1]; Test 1, 0.25 μM): 70.3% | inhibition at 0.01 µM ([1]; Test 2, 0.01 μM): 21% | inhibition at 0.05 µM ([1]; Test 2, 0.05 μM): 15% | inhibition at 0.25 µM ([1]; Test 2, 0.25 μM): 49% | activation at 0.01 µM ([2]; Test 1, 0.01 μM): 40% | activation at 0.05 µM ([2]; Test 1, 0.05 μM): 140% | activation at 0.25 µM ([2]; Test 1, 0.25 μM): 660% | activation at 0.01 µM ([2]; Test 2, 0.01 μM): 175% | activation at 0.05 µM ([2]; Test 2, 0.05 μM): 196% | activation at 0.25 µM ([2]; Test 2, 0.25 μM): 820% | activation at 0.01 µM ([3]; Test 1, 0.01 μM): 670% | activation at 0.01 µM ([3]; Test 2, 0.01 μM): 600% | activation at 0.01 µM ([4]; Test 1, 0.01 μM): 45% | activation at 0.05 µM ([4]; Test 1, 0.05 μM): 173% | activation at 0.25 µM ([4]; Test 1, 0.25 μM): 290% | activation at 0.01 µM ([4]; Test 2, 0.01 μM): 49% | activation at 0.05 µM ([4]; Test 2, 0.05 μM): 154% | activation at 0.25 µM ([4]; Test 2, 0.25 μM): 216%

CC(C)(C)NCC(O)c1cc(Br)no1 (stereo not drawn) [II]
inhibition at 0.01 µM ([1]; Test 1, 0.01 μM): 0% | inhibition at 0.05 µM ([1]; Test 1, 0.05 μM): 0% | inhibition at 0.25 µM ([1]; Test 1, 0.25 μM): 7.9% | activation at 0.01 µM ([2]; Test 1, 0.01 μM): 27% | activation at 0.05 µM ([2]; Test 1, 0.05 μM): -7% | activation at 0.25 µM ([2]; Test 1, 0.25 μM): -40% | activation at 0.25 µM ([3]; Test 1, 0.25 μM): 325% | percent increase compared to control, glycerol production ([3]; Test 1, 0.05 μM): inactive | activation at 0.01 µM ([4]; Test 1, 0.01 μM): 51% | activation at 0.05 µM ([4]; Test 1, 0.05 μM): 15% | activation at 0.25 µM ([4]; Test 1, 0.25 μM): 35% | Gain ([5]; Test 2, control 7.5): 8.4 g/day | Feed Intake ([5]; Test 2, control 19.3): 21.1 g/day | Weight ([5]; Test 2, control 202.3): 215.9 g | Carcass Composition % of Change over Control, Fat ([5]; Test 2): -9.3% | Carcass Composition % of Change over Control, Protein ([5]; Test 2): 3.8%

Cn1c(=O)c2c(ncn2CCCNCC(O)c2cc(O)cc(O)c2)n(C)c1=O (stereo not drawn) [VI, Reproterol]
inhibition at 0.01 µM ([1]; Test 1, 0.01 μM): 0% | inhibition at 0.05 µM ([1]; Test 1, 0.05 μM): 0% | inhibition at 0.25 µM ([1]; Test 1, 0.25 μM): 8.6% | inhibition at 0.01 µM ([1]; Test 2, 0.01 μM): -3% | inhibition at 0.05 µM ([1]; Test 2, 0.05 μM): 12% | inhibition at 0.25 µM ([1]; Test 2, 0.25 μM): 25% | activation at 0.01 µM ([2]; Test 1, 0.01 μM): 20% | activation at 0.05 µM ([2]; Test 1, 0.05 μM): -7% | activation at 0.25 µM ([2]; Test 1, 0.25 μM): 0% | activation at 0.01 µM ([2]; Test 2, 0.01 μM): 8% | activation at 0.05 µM ([2]; Test 2, 0.05 μM): 21% | activation at 0.25 µM ([2]; Test 2, 0.25 μM): 3% | activation at 0.05 µM ([3]; Test 1, 0.05 μM): 130% | activation at 0.25 µM ([3]; Test 1, 0.25 μM): 465% | activation at 0.01 µM ([3]; Test 2, 0.01 μM): -14% | activation at 0.05 µM ([3]; Test 2, 0.05 μM): 129% | activation at 0.25 µM ([3]; Test 2, 0.25 μM): 700% | activation at 0.01 µM ([4]; Test 1, 0.01 μM): 63% | activation at 0.05 µM ([4]; Test 1, 0.05 μM): 86% | activation at 0.25 µM ([4]; Test 1, 0.25 μM): 86% | activation at 0.01 µM ([4]; Test 2, 0.01 μM): 13% | activation at 0.05 µM ([4]; Test 2, 0.05 μM): 16% | activation at 0.25 µM ([4]; Test 2, 0.25 μM): 13% | Gain ([5]; Test 2, control 7.5): 8.3 g/day | Feed Intake ([5]; Test 2, control 19.3): 21.2 g/day | Weight ([5]; Test 2, control 202.3): 213.4 g | Carcass Composition % of Change over Control, Fat ([5]; Test 2): 2.5% | Carcass Composition % of Change over Control, Protein ([5]; Test 2): 0.5%

COc1ccc(CNc2cc(C(O)CNC(C)(C)C)ccc2O)cc1 (stereo not drawn) [III]
inhibition at 0.01 µM ([1]; Test 1, 0.01 μM): 9.5% | inhibition at 0.05 µM ([1]; Test 1, 0.05 μM): 35.5% | inhibition at 0.25 µM ([1]; Test 1, 0.25 μM): 54.4% | activation at 0.01 µM ([2]; Test 1, 0.01 μM): 20% | activation at 0.05 µM ([2]; Test 1, 0.05 μM): 33% | activation at 0.25 µM ([2]; Test 1, 0.25 μM): 53% | activation at 0.01 µM ([3]; Test 1, 0.01 μM): 465% | activation at 0.05 µM ([3]; Test 1, 0.05 μM): 845% | activation at 0.01 µM ([4]; Test 1, 0.01 μM): 194% | activation at 0.05 µM ([4]; Test 1, 0.05 μM): 203% | activation at 0.25 µM ([4]; Test 1, 0.25 μM): 334% | Gain ([5]; Test 1, control 7.3): 8.0 g/day | Feed Intake ([5]; Test 1, control 18.6): 19.4 g/day | Weight ([5]; Test 1, control 191.8): 201.7 g | Carcass Composition % of Change over Control, Fat ([5]; Test 1): -7.0% | Carcass Composition % of Change over Control, Protein ([5]; Test 1): 6.1%

CC(C)(C)NCC(O)c1ccc(O)c(O)c1 (stereo not drawn) [Compound X, Colterol]
growth promoting activity, oral ([6]; administered orally): very little activity | growth promoting activity, parenteral ([6]; administered parenterally): substantially active

CC(C)(C)NCC(O)c1ccc(O)c(CO)n1 (stereo not drawn) [VII, Pirbuterol]
Gain ([5]; Test 1, control 7.3): 8.0 g/day | Feed Intake ([5]; Test 1, control 18.6): 19.8 g/day | Weight ([5]; Test 1, control 191.8): 200.9 g | Carcass Composition % of Change over Control, Fat ([5]; Test 1): -8.7% | Carcass Composition % of Change over Control, Protein ([5]; Test 1): 3.6%
